In US20090068255A1, “USE OF MATRIX METALLOPROTEINASE INHIBITORS IN SKIN CARE” (priority 2007, published 2009):
“Also recorded” adds a separate entry of the source.

Columns and labels:
[1] = system: female subjects 40-65 years of age with mild to moderate skin aging; assay: Double-blind, placebo-controlled, randomized 16-week clinical study; dermatologist assessment of individual facial skin appearance parameters (scale 0-9); format: in vivo, human; conditions: 16 weeks
Description: Photoaging of the skin typically manifests itself as worsening appearance of the skin, including an increased appearance of mottled hyperpigmentation, wrinkles, coarseness of skin, redness, and pores. In this study, the MMP inhibitor,
was evaluated in female subjects 40-65 years of age with mild to moderate skin aging to determine its benefit on the appearance of aging.
The study was designed as a double-blind, placebo-controlled, randomized 16-week clinical study to evaluate the benefit of the MMP inhibitor,
in reducing the appearance of aging. Subjects enrolled in the study were between 40-65 years of age with mild to moderate skin age scores. A randomization table was used to determine which subjects would receive the study cream and which would receive the placebo cream. Subjects were instructed to apply the assigned cream to their face twice a day (once in the morning and once in the evening) after their face was washed and dried. A pea-sized drop of the test article was applied to each quadrant of the face to form a thin layer over the entire face. Follow-up visits were scheduled at 2, 4, 8, 12, and 16 weeks after the cream application was started.
Subjects were instructed to apply the test or placebo cream to the face twice daily (once in the morning and once in the evening) over the entire 16 week study period. […]
The effect of the MMP inhibitor on the subject's skin was assessed using the Physician Global Assessment of facial skin appearance and the assessment of the following individual skin appearance parameters on a scale from 0 to 9: fine wrinkling, mottled hyperpigmentation, age spots, tactile roughness, coarse wrinkling, telangiectasia, pore size, sallow tone, and sag. […]
A Physician Global Assessment of facial skin appearance using the Griffiths scale (0-8) was performed at all study visits. […] An assessment of individual skin parameters including fine wrinkling, mottled hyperpigmentation, age spots, tactile roughness, coarse wrinkling, redness, pore size, sollowness, and sag was scored on a scale from 0-9 at all study visits based on the following table: […]

[2] = system: female subjects 40-65 years of age with mild to moderate skin aging; assay: Profilometry of silicone replicas of the crow's feet area in the 16-week clinical study; format: in vivo, human; conditions: replicas at day 0, week 8, week 16, p<0.05
Description: The effect of the MMP inhibitor on the subject's skin was assessed using the Physician Global Assessment of facial skin appearance and the assessment of the following individual skin appearance parameters on a scale from 0 to 9: fine wrinkling, mottled hyperpigmentation, age spots, tactile roughness, coarse wrinkling, telangiectasia, pore size, sallow tone, and sag. The cosmetic appearance of telangiectasia may be perceived as increased facial redness. Other criteria were also used including profilometry of crow's feet region using silicone replicas.
Silicone replicas of the crow's feet area (“profilometry”) were made at day 0, week 8, and week 16.
For the silicone replicas, the data used in the statistical analyses was the change from baseline. Within-treatment analysis of the skin replica parameters changes from baseline were evaluated using Student's t-test for paired data. Between-treatment analyses were conducted utilizing analysis of covariance with the baseline value as the covariate.

## O=C(NCc1ccc(-c2ccccc2)cc1)c1occc(=O)c1O [MMP inhibitor]
[1]; cream of Example 27 (0.20% MMP inhibitor) applied to the face twice daily, p<0.05 vs placebo
  appearance of telangiectasia (redness), change from baseline relative to the placebo formulation: reduce the appearance of telangiectasia
[1]; cream of Example 27 applied to the face twice daily, Proc GLM time x treatment interaction p-value 0.02
  appearance of pore size, active vs placebo group: improved appearance; also recorded: trending toward improvement
[1]; cream of Example 27 applied to the face twice daily, Proc GLM time x treatment interaction p-value 0.06
  appearance of coarse wrinkles, active vs placebo group: improved appearance of coarse wrinkles; also recorded: trending toward improvement
[2]
  coarse wrinkle depth and roughness by profilometry of silicone replica, treatment vs placebo group: significant improvement; also recorded: consistent with the improvement of coarse wrinkle scores
